Experimental data from PubChem BioAssay (NCI).
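Step 1: Grow cells in 96-well plates. Step 2: Expose to compound for 48 hours at 5 concentrations. Step 3: Interpolate endpoints linearly; if unreached, use highest concentration. Abbreviation: GI50, concentration required for 50% inhibition of growth. The concentration for full growth arrest is given as TGI.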

Tested on: MDA-MB-468 breast
Assay: NCI anticancer screen, dose series, 48 h

Compound	GI50	TGI
CCCCCCOC(=O)CC1=C(C)/C(=C/c2[nH]c(-c3ccc[nH]3)cc2OC)N=C1C	0.155 µM	1.43 µM
COc1ccc(Nc2ncc(I)c(NCCCNC(=O)C3CCC3)n2)cc1	11.9 µM	38.6 µM
NC(=O)c1cn(C2CC(O)C(CO)O2)c2ncnc(N)c12 (stereo not given)	0.486 µM	3.77 µM
CCOC(=O)c1ccc(N2NC(=O)/C(=C/c3ccc([N+](=O)[O-])o3)C2=O)cc1	6.69 µM	14.5 µM
Cc1ccc(-c2cc(C(=O)Nc3ccc(S(=O)(=O)N4CCCCC4)cc3)[nH]n2)c(O)c1	> 100 µM	> 100 µM
CCOC(=O)c1c(NN2CCN(CC(F)(F)F)CC2)oc(/C=C2\C=Nc3ncccc32)c1O	3.01 µM	12 µM
CCn1nc(C2CCN(C(=O)CCO)CC2)nc1-c1cnc(N)c(-c2nnc(C(C)(C)C)o2)n1	1.28 µM	16.1 µM
CCCCCSc1ccc2nc(NC(=O)OCC)sc2c1	0.564 µM	14.8 µM
OCc1ccc(-c2nc(-c3ccc4c(c3)OCO4)c(-c3ccccn3)[nH]2)cc1	> 25 µM	> 25 µM
COC(=O)[C@H](Cc1cn(C)cn1)NC(=O)[C@H](CC(C)C)NC(=O)Nc1cc(C(F)(F)F)cc(C(F)(F)F)c1	3.71 µM	> 10 µM
COc1cccc(/C=N\NC(=O)c2ccncc2)c1O	2.32 µM	11.2 µM
COc1cc2c(cc1OC)[C@@H]1C(=O)c3ccc4c(c3O[C@@H]1CO2)C[C@H](C(C)C)O4	< 0.0181 µM	0.867 µM
COc1cc(OC)c(C(=O)/C=C/c2ccc(C#N)cc2)c(OC)c1	1.17 µM	3.48 µM
CC(C)[C@@]12C[C@@H](OC(=O)C3CO3)[C@@](C)(O1)[C@@H]1CC[C@@H](C)[C@H]1[C@@H]2OC(=O)/C=C/c1ccccc1 (stereo not given in full)	16.9 µM	34.8 µM
Cc1cccc2c(=O)c3c(sc12)c(NCCCNCCO)nc1ccccc13	1.47 µM	3.04 µM
COC(=O)CCc1n(Cc2ccc3ccccc3c2)c2ccccc2[n+]1Cc1ccc2ccccc2c1	0.196 µM	1.13 µM
CC(C)CCN(CCC(C)C)CC(=O)Nc1ccc(S(=O)(=O)c2ccc(NC(=O)CN(CCC(C)C)CCC(C)C)cc2)cc1	2.39 µM	7.52 µM
CCCCN(CCCC)P(=O)(Oc1ccccc1)Oc1ccccc1	3.03 µM	11.7 µM
Cc1[nH]c2ccccc2c1CO	19.4 µM	41.4 µM
Clc1ccc(-c2cnc3c(-c4ccnc(N5CCNCC5)c4)cnn3c2)cc1	1.54 µM	2.99 µM
CCc1cc2c(c(OCC(F)(F)F)c(C(=O)NC3CCN(C(=O)CO)CC3)n2C)c(=O)n1CC(=O)c1ccccc1	70.6 µM	> 100 µM
Clc1cc(Br)ccc1-c1ccc(CNCC2CCNCC2)o1	1.71 µM	3.41 µM
COc1ccc(C2c3ccc4ccccc4c3Oc3ncn(CCCn4ccnc4)c(=N)c32)cc1OC (stereo not given)	2.12 µM	5.45 µM

Compound	GI50	TGI
Cn1cnc([N+](=O)[O-])c1S(=O)(=O)Oc1ccc(Cl)cc1	1.74 µM	3.7 µM
CCOc1ccccc1/C=N\N=C(N/N=C/c1ccccc1OCC)N/N=C/c1ccccc1OCC	1.54 µM	7.16 µM
COc1cccc2c1C(=O)c1c(O)c3c(c(O)c1C2=O)C[C@](O)(C(=O)CO)C[C@H]3O[C@@H]1C[C@@H](NC(=O)CCCN(C)C2(c3ccc(F)cc3)CC3CCC2C3)[C@H](O)[C@@H](C)O1 (stereo not given in full)	0.879 µM	1.73 µM
O=C(COc1ccccc1)NNc1ccccc1	> 300 µM	> 300 µM
O=C1CN=C(c2ccc[nH]2)c2cc(Cl)ccc2N1	> 100 µM	> 100 µM
COc1ccc(Sc2[nH]c(C=O)c3ccccc23)cc1	1.42 µM	24.3 µM
CC(C)(C)c1cc(C[P+](c2ccccc2)(c2ccccc2)c2ccccc2)cc(C(C)(C)C)c1O	0.216 µM	0.771 µM
COc1cc(CSc2nc3ccc(Cl)cc3c(=O)n2Cc2ccccc2)cc(OC)c1OC	1.07 µM	4.03 µM
COc1ccc(C(=O)/C=C/c2cc(-c3ccc(OC)c(OC)c3)n[nH]2)cc1OC	1.09 µM	2.56 µM
Cc1[nH]c(C(=O)Nc2ccc(C(=O)NCCN)cc2OC(C)C)c(Cl)c1Cl	1.91 µM	3.67 µM
CCCCCCCCCCCCCCCCn1cc[n+](C)c1	0.092 µM	0.431 µM
CCN1/C(=C/C(C)=C/c2sc3ccc4ccccc4c3[n+]2CC)Sc2ccc3ccccc3c21	0.0156 µM	0.156 µM
COC(=O)c1c2c(c(C)[n+]([O-])c1C)C(=O)C(NCc1ccccc1)=CC2=O	1.3 µM	3.15 µM
O=C1OC2(c3ccc(O)cc3Oc3cc(O)ccc32)c2cccc3cccc1c23	16.1 µM	34.3 µM
c1cc(OCCN2CCCC2)ccc1CNc1ccc2nc(CCC3CCCCC3)[nH]c2c1	1.47 µM	3.63 µM
Cc1ncc(C(=O)Nc2ccc(CN3CCN(C)CC3)c(C(F)(F)F)c2)cc1C#Cc1cnc(N)c2ccc(C#N)cc12	0.0613 µM	5.13 µM
CCCN(CCC)c1ccc(/C=N/NC(=O)c2cccnc2)c(C)c1	2.95 µM	15.1 µM
O=C(Nc1ccc(I)cc1F)c1cc(Br)ccc1O	0.401 µM	2.33 µM
COc1ccc(C)c2sc(N(Cc3cccnc3)C(=O)c3ccc(C#N)cc3)nc12	35 µM	> 100 µM
Cc1nnn(C)c1-c1cnc2c3ccc(C(C)(C)O)cc3n([C@H](c3ccccc3)C3CCOCC3)c2c1	< 0.01 µM	8.91 µM
C#CCNC1CCC(c2csc(C#C)n2)=C1C (stereo not given)	3.17 µM	18.8 µM
CCCCCN(CCCCC)CCC[C@@H](C)[C@H]1CC[C@H]2[C@@H]3[C@H](OCCCN)C[C@@H]4C[C@H](OCCCN)CC[C@]4(C)[C@H]3C[C@H](OCCCN)[C@]12C	13 µM	29.8 µM
